Test results reported in US11980687B2, “Liposomal compounds and methods of use thereof” (University of Kentucky Research Foundation, priority 2019, dated 2024).

What was measured:
Ly6C^hi monocytes = assay: Flow cytometry of Ly6C^hi monocytes in heart and blood post-MI; assay type: in vivo, mice; details: first day after injury; effect disappears at later timepoints
Experimental: (§1) Cell phenotype, in addition to gene analyses, of monocytes and neutrophils were investigated in peripheral blood as previously described ([…] et al. 2018). Briefly, blood was collected in tubes with a 1:5 ratio of ethylene diaminetetraacetic acid (EDTA)/citrate-theophylline-adenosinedipyridamole (CTAD) on days 1, 3 and 7 post-MI. Whole blood was centrifuged for 5 minutes at 500×g, and the plasma layer was separated and reserved at -80° C. To lyse red blood cells, the residual cell pellet was incubated with 0.5 ml of diluted red blood lysing buffer (BD pharm lyse) for 10 minutes with mild agitation. To end the lysis process, 0.5 ml of staining buffer (5% goat serum, 0.05% sodium azide in phosphate-buffered saline) was added to the suspension of red blood cell lysed blood. Then, the suspension was centrifuged at 400×g for 5 minutes, and the supernatant was removed. This step was repeated if the red blood cells were still detectable in the cell pellet. White blood cell pellet was washed twice in staining buffer to remove any residual lysis buffer. After supernatant removal, the pellet was resuspended in a pre-determined volume of staining buffer and counted. […] Following incubation, cells were washed twice with staining buffer and analyzed by an LSR II (Becton Dickinson) in the University of Kentucky Flow Cytometry Core. […]

neutrophils = assay: Flow cytometry of neutrophils and N1 neutrophils in heart and blood post-MI; assay type: in vivo, mice; details: day 1 post-MI
Experimental: as §1

[1] = test system: pro- and anti-inflammatory cytokine expression; assay: RT-PCR of inflammatory and reparative gene expression in heart and blood cells post-MI; assay type: in vivo, mice
Experimental: PureLink RNA Mini Kit (ThermoFisher Scientific) was used to isolate total mRNA from heart and blood cells according to manufacturer protocol. Isolated RNA was quantified using NanoDrop 8000 spectrophotometer (Thermofisher). Next, cDNA was generated using SuperScript VILO cDNA synthesis kit (Invitrogen). Using a QuantaStudio 7 Flex real-time thermocycler (Applied Biosystems by life technology), Reverse Transcription-Polymerase Chain Reaction (RT-PCR) was performed to measure the mRNA expression of markers identifying: inducible nitric oxide synthase (iNOS), tumor necrosis factor alpha (TNF-α), monocyte chemotactic protein-1 (MCP-1), transforming growth factor beta (TGF-β), interleukin-1 beta (IL-1β), interleukin-6 (IL-6), interleukin-4 (IL-4), chitinase-like3 Chil3 (YM1), interleukin-10 (IL10), arginase-1 (ARG-1), and Peroxisome proliferator-activated receptor gamma (PPARg). We used the comparative Ct method for relative estimation of mRNA expression which was normalized to 18s (a housekeeping gene). […]

infarcted heart = assay: Masson's trichrome scar size 30 days post-MI; assay type: in vivo, mice; details: compared to controls
Experimental: Histological analysis was performed on deparaffinized and rehydrated sections as previously described (Al-Darraji, Haydar et al. 2018). Briefly, 30 day post-MI mice (N=6-10/treatment group) were sacrificed under isoflurane anesthesia and hearts were isolated. Hearts were perfused with PBS (VWR International) then by 10% buffered formalin (VWR International) at 75 mmHg. Perfused hearts were placed in 10% neutral buffered formalin (VWR) overnight at room temperature, then sectioned into 2-mm cross-sections starting at the level of coronary ligation then imbedded in paraffin and sectioned into 4-μm sections. Sections were stained with Masson's trichrome to evaluate scar size as previously described (Al-Darraji, Haydar et al. 2018). Digital images of stained sections were acquired, and areas of interest were assessed using NIH ImageJ […] software. The LV area, LV cavity area, and infarct area were measured as previously described (Al-Darraji, Haydar et al. 2018). Scar size was presented as a percentage of the total LV […].

heart = assay: Hemodynamic and ECG effects after retro-orbital administration; assay type: in vivo, mice; details: 40 mg/kg retro-orbital
Experimental: Mice were anaesthetized using 1%-3% isoflurane during Echocardiography to maintain heart rate of 450-500 BPM during imaging. A Vevo 3100 system coupled with a 15-7-MHz linear broadband transducer and a 12-5-MHz phased array transducer was used to perform Echocardiogram analyses. Heart function was examined at baseline (before cardiac surgery) then one-week and 4 weeks post-MI. During acquisition, a heating pad was used to preserve the body temperature at 37° C.; the temperature was continuously assessed by a rectal temperature probe. Using modified parasternal long-axis and short-axis, two-dimensional and Doppler echocardiography was used to assess the LV function and volume in M-mode. Tracings at the mid-papillary level to investigate the systolic and diastolic parameters and Teichholz formula were used to quantify LV function. Echocardiography imaging and analyses were carried out by a blinded investigator. Mice were anesthetized with 2% isoflurane, then placed on the ECG platform. Electrodes were inserted subcutaneously on the two front paws and the left rear paw followed by ECG recording for 2-3 minutes. Once the recording was completed, the data were analyzed using Chart software (PhysioTel).

[2] = cited from earlier work
cardiac cells = assay: TUNEL and caspase-3 staining of apoptosis in the peri-infarct region; assay type: in vivo, mice; details: peri-infarct regions, 3 days post-MI, compared to vehicle control
Experimental: Cell apoptosis was examined on deparaffinized and rehydrated sections from mice (N=4/treatment group) sacrificed at day 3, as previously described ([…] et al. 2018). TUNEL and caspase-3 staining was performed in the Biospecimen Procurement and Translational Pathology Shared Resource Facility (BPTP SRF) at the University of Kentucky. Nucleated cells that stained positive were estimated. Quantification was performed using Cell Counter plugin for ImageJ (version 1.51d). Findings are presented as total positive cells per high power field in the peri-infract region. All measurements were obtained in the peri-infarcted areas only and analyzed by blinded observer.

macrophages [3] = assay: Immunohistochemistry of macrophages in the peri-infarct zone; assay type: in vivo, mice
Experimental: Heart sections (N=4/treatment group) were prepared as described in the previous section. Immunostaining of heart sections was performed on deparaffinized and rehydrated sections as previously described (Al-Darraji, Haydar et al. 2018). Briefly, after deparaffinization and rehydration, sections were incubated with primary antibodies: rabbit anti-mouse IBA1 (Wako), goat anti-mouse CD206 (R and D Systems), and goat anti-mouse IL-1β (R & D Systems) overnight at 4° C., then washed and incubated with secondary antibodies conjugated to Alexa Fluor 488 or 594 (Invitrogen), followed by incubation with DAPI. In the peri-infarct area, 10-15 adjacent zones per section (1-2 sections/animal) were imaged at 40× magnification utilizing Nikon Confocal Microscope A1 in the University of Kentucky Confocal Microscopy facility. Nucleated cells that were antibody-positive were quantified using Cell Counter plugin for Nikon NIS-Elements (version AR 3.2). Findings are presented as total number of positive cells per high power field in the area of interest.

macrophages [4] = assay: Flow cytometry of macrophage phenotypes in the injured heart; assay type: in vivo, mice; details: heart post-MI, relative to Lazm
Experimental: Phenotypic cell analysis of macrophages and neutrophils and gene expression analysis was conducted in the heart as previously described ([…] et al. 2018). Briefly, mice were sacrificed, and hearts were rapidly isolated and placed in ice cold PBS (VWR International). Using a razor blade, the heart was minced manually. After mincing, tissue was incubated with a Collagenase B (Roche, Indianapolis, IN) and Dispase II (Roche, Indianapolis, IN) mixture at 37° C. for 30 minutes, with gentle agitation every 5-10 minutes. Tissue digestion ceased using cold staining buffer and the suspension was placed on ice and filtered using a 70 μm cell strainer, followed by centrifugation at 400×g for 5 mins at 4° C. Supernatant was discarded and the pellet was resuspended in 0.3 ml of staining buffer. Individual heart cells were divided into approximately three equal portions depending on cell counting with 10^6 live (trypan blue-negative) cells in each. Two portions were used for cell staining while the remainder was incubated with cell lysis buffer (Life technologies) using multiple aggressive agitations, for 10 minutes and reserved at -80° C. for further gene expression analysis. […] Cells were then washed twice with staining buffer and analyzed by an LSR II (Becton Dickinson) in the University of Kentucky Flow Cytometry Core. […]

IL-1β = IL-1β (Homo sapiens, UniProt P01584); details: cited from earlier work

## CC[C@H]1OC(=O)[C@H](C)[C@@H](O[C@H]2C[C@@](C)(OC)[C@@H](O)[C@H](C)O2)[C@H](C)[C@@H](O[C@@H]2O[C@H](C)C[C@H](N(C)C)[C@H]2O)[C@](C)(O)C[C@@H](C)CN(C)[C@H](C)[C@@H](O)[C@]1(C)O [free AZM, azithromycin]
Ly6C^hi monocytes
  Ly6C^hi (pro-inflammatory) monocytes in the heart: significantly decrease in the first day after injury
neutrophils
  neutrophil counts in the heart: did not see significant changes
[1]; consistent effects up to day 7
  expression of anti-inflammatory cytokines and reparative macrophage markers (TGF-β, IL-10, IL-4, ARG, Fizz1, PPARγ, YM1) in cardiac tissue: significantly upregulated
[1]; particularly days 1 and 3 post-infarct
  mRNA levels of iNOS and pro-inflammatory cytokines (MCP-1, TNF-α, IL-6, IL-1β) in cardiac tissue: substantially downregulated
Infarcted heart
  scar size (percentage of LV area): significant reduction
heart
  QT interval: prolonged
heart; compared with baseline
  RR: remarkably reduces
  cardiac output: remarkably reduces
  ejection fraction: remarkably reduces
  heart rate: remarkably reduces
[2]; 160 mg/kg/day, orally, initiated 3 days pre-MI
  post-MI cardiac recovery: enhances post-MI cardiac recovery
[2]; first study, mice receiving AZM
  neutrophil counts: substantially decreased
Cardiac cells
  TUNEL positive cells (late apoptosis): remarkable reduction
  caspase-3 positive cells (early apoptosis): remarkable reduction
40 mg/kg IV, post-MI
  mortality during drug administration: occurs during the drug administration due to severe changes in cardiac conduction and hemodynamic parameters
35 days post-MI, vs vehicle-treated mice
  survival: marked improvement in survival
Macrophages [3]; day 3 post-MI, compared to control groups
  reparative macrophages (CD206+) in peri-infarct zone: significant increase
Macrophages [3]; peri-infarct zones, 3 days post-MI, compared to controls
  expression of IL-1β in macrophages (IBA1+IL-1β+): marked reduction
Macrophages [4]
  immunomodulatory changes of heart macrophages (FACS): Less powerful immunomodulatory changes

## canakinumab: monoclonal antibody targeting IL-1β
IL-1β
  cardiovascular events reoccurrence: significantly decreases cardiovascular events reoccurrence
